According to patent US12643912B2, “Macrocyclic compounds, a process for their preparation and pharmaceutical compositions containing them” (LES LABORATOIRES SERVIER, priority 2020, dated 2026):
Like-named read-outs stand apart in the source and are kept apart here.

Legend:
[1] = biological target: T1, Keap1 (A321-C624) (h) (Homo sapiens, UniProt Q14145); experiment: Surface Plasmon Resonance binding assay to Kelch domain of KEAP1; settings: Biacore T200, 25° C., immobilized His-Thromb-KEAP1(A321-C624), single cycle kinetics, KD=kd/ka from 1:1 fit; read-out: Keap1 (A321-C624) (h) direct/SPR (KD)
T1 construct: His-Thromb-KEAP1(A321-C624) acquired from Novalix (batch PU-P01) was immobilized covalently by amine coupling; His tag (N); thrombin cleavage site (Thromb) (N); purchased Novalix batch PU-P01
Summary of the method: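 His-Thromb-KEAP1(A321-C624) amine-coupled on CM5 chip to 1250 RU; amine blank reference. Run at 25° C in HEPES pH 7.4, 150 mM NaCl, 3 mM EDTA, 1 mM TCEP, 0.05% P20, 5% DMSO; 180 s association, 720 s dissociation, 50 μL/min. KD = kd/ka from 1:1 kinetic fit, double-referenced, DMSO solvent-corrected.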

[2] = tested on: Nrf2 (Keap1-NRF2 nuclear translocation); experiment: U2OS translocation assay (PathHunter U2OS Keap1-NRF2 Nuclear Translocation Cell Line); assay type: cell-based
Summary of the method: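 Enzyme-fragment complementation read-out: luminescence after 60 min of detection reagent at room temperature, following a 3 h, 37° C compound exposure of engineered U2OS Keap1-NRF2 translocation cells (1% FBS medium). Signal scaled from 1% DMSO basal to 10 μM andrographolide maximum.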

[3] = Homo sapiens, U2OS, 3 h, read-out: CELLULAR U2OS EC50 (nM), U2OS Keap1-NRF2 nuclear translocation cells, 3 h incubation, luminescence, normalized between 1% DMSO and 10 μM andrographolide
[4] = read-out: CELLULAR U2OS EC50, U2OS Keap1-NRF2 nuclear translocation cells, 3 h incubation, luminescence, normalized between 1% DMSO and 10 μM andrographolide

T1 sequence (Q14145 321-624): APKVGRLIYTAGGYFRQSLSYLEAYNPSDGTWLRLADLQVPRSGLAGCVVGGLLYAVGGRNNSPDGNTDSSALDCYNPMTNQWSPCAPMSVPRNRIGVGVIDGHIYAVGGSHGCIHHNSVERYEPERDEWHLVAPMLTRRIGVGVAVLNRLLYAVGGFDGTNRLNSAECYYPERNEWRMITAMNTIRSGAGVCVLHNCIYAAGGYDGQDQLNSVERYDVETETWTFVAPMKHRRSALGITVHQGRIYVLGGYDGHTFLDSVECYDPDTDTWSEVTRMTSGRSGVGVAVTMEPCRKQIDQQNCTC

Row | Structure (SMILES) | Kd [1] [nM] | EC50 [2, 3] [nM] | EC50 [2, 4] [nM]
1 | Cc1cc2cc(c1)C(CC(=O)O)c1ccc3c(nnn3CCCCOc3ccc4c(c3)CN(C2)S(=O)(=O)O4)c1C (stereo not shown) [Example 5, [5,31-Dimethyl-27,27-dioxo-21,26-dioxa-27λ^6-thia-1,14,15,16-tetraazahexacyclo[20.5.3.1^3,70.1^9,130.0^12,160.0^25,29]dotriaconta-3(32),4,6,9(31),10,12,14,22,24,29-decaen-8-yl]acetic acid] | 131 | 1810 | 
2 | Cc1ccc2cc1[C@@H](C)N1Cc3cc(ccc3OS1(=O)=O)OCCC1(CCOCC1)Cn1nnc3c(C)c(ccc31)C2CC(=O)O (stereo partly drawn) [Example 68, [(2R)-2,4,31-Trimethyl-27,27-dioxo-27λ^6-spiro[21,26-dioxa-27-thia-1,14,15,16-tetraazahexacyclo[20.5.3.1^3,70.1^9,130.0^12,160.0^25,29]dotriaconta-3(32),4,6,9(31),10,12,14,22,24,29-decaene-18,4′-oxan]-8-yl]acetic acid] | 8.96 | 38.3 | 
3 | COc1ccc2cc1CN1Cc3cc(ccc3OS1(=O)=O)OCc1ccccc1OCCCCn1nnc3c(C)c(ccc31)C2CC(=O)O (single isomer, unassigned) [Example 53a, [4-Methoxy-39-methyl-35,35-dioxo-21,29,34-trioxa-35λ^6-thia-1,14,15,16-tetraazaheptacyclo[28.5.3.1^3,70.1^9,130.0^12,160.0^22,270.0^33,37]tetraconta-3(40),4,6,9(39),10,12,14,22,24,26,30,32,37-tridecaen-8-yl]acetic acid] | 47.7 |  | 369
4 | Cc1c2ccc3c1nnn3CCCCOc1ccc3c(c1)CN([C@H](C)c1cc(ccc1Cl)[C@@H]2CC(=O)O)S(=O)(=O)O3 [Example 64a, [(2R,8S)-4-chloro-2,31-dimethyl-27,27-dioxo-21,26-dioxa-27λ^6-thia-1,14,15,16-tetraazahexacyclo[20.5.3.1^3,70.1^9,130.0^12,160.0^25,29]dotriaconta-3(32),4,6,9(31),10,12,14,22,24,29-decaen-8-yl]acetic acid] | 0.195 | 24 | 
5 | COc1cc2cc3c1OS(=O)(=O)N(C3)[C@H](C)c1cc(ccc1C)[C@@H](CC(=O)O)c1ccc3c(nnn3CCCCO2)c1C [Example 23a, [(2R,8R)-24-Methoxy-2,4,31-trimethyl-27,27-dioxo-21,26-dioxa-27λ^6-thia-1,14,15,16-tetraazahexacyclo[20.5.3.1^3,70.1^9,130.0^12,160.0^25,29]dotriaconta-3(32),4,6,9(31),10,12,14,22,24,29-decaen-8-yl]acetic acid] | 50.5 | 3160 | 
6 | Cc1c(Cl)cc2cc1CN1Cc3cc(ccc3OS1(=O)=O)OCCCCn1nnc3c(C)c(ccc31)C2CC(=O)O (single isomer, unassigned) [Example 33a, [5-Chloro-4,31-dimethyl-27,27-dioxo-21,26-dioxa-27λ^6-thia-1,14,15,16-tetraazahexacyclo[20.5.3.1^3,70.1^9,130.0^12,160.0^25,29]dotriaconta-3(32),4,6,9(31),10,12,14,22,24,29-decaen-8-yl]acetic acid] | 4.55 |  | 94.5

The next lines start with results.

Row | Kd [1] [nM] | Structure (SMILES) | EC50 [2, 3] [nM] | EC50 [2, 4] [nM]
7 | 3 | Cc1ccc2cc1CN1Cc3cc(ccc3OS1(=O)=O)OCc1ccccc1CCn1nnc3c(C)c(ccc31)C2CC(=O)O (single isomer, unassigned) [Example 62a, [4,36-Dimethyl-32,32-dioxo-26,31-dioxa-32λ^6-thia-1,14,15,16-tetraazaheptacyclo[25.5.3.1^3,70.1^9,130.0^12,160.0^19,240.0^30,34]heptatriaconta-3(37),4,6,9(36),10,12,14,19,21,23,27,29,34-tridecaen-8-yl]acetic acid] | 177 | 
8 | 1.07 | Cc1ccc2cc1CN1Cc3cc(ccc3OS1(=O)=O)OCCCCn1nnc3c(C)c(ccc31)[C@H]2CC(=O)O [Example 7a, [(8S)-4,31-Dimethyl-27,27-dioxo-21,26-dioxa-27λ^6-thia-1,14,15,16-tetraazahexacyclo[20.5.3.1^3,70.1^9,130.0^12,160.0^25,29]dotriaconta-3(32),4,6,9(31),10,12,14,22,24,29-decaen-8-yl]acetic acid] | 23 | 
9 | 0.678 | Cc1ccc2cc1CN1Cc3c(ccc(c3Cl)OCCCCn3nnc4c(C)c(ccc43)C2CC(=O)O)OS1(=O)=O (single isomer, unassigned) [Example 66a, [30-Chloro-4,31-dimethyl-27,27-dioxo-21,26-dioxa-27λ^6-thia-1,14,15,16-tetraazahexacyclo[20.5.3.1^3,70.1^9,130.0^12,160.0^25,29]dotriaconta-3(32),4,6,9(31),10,12,14,22,24,29-decaen-8-yl]acetic acid] |  | 3.44
10 | 498 | Cc1ccc2cc1CN1Cc3cc(ccc3OS1(=O)=O)OCc1ccccc1OCCCn1nnc3c(C)c(ccc31)C2CC(=O)O (single isomer, unassigned) [Example 57b, [4,38-Dimethyl-34,34-dioxo-20,28,33-trioxa-34λ^6-thia-1,14,15,16-tetraazaheptacyclo[27.5.3.1^3,70.1^9,130.0^12,160.0^21,260.0^32,36]nonatriaconta-3(39),4,6,9(38),10,12,14,21,23,25,29,31,36-tridecaen-8-yl]acetic acid] |  | 2820
11 | 0.685 | Cc1ccc2cc1CN1Cc3cc(ccc3N(C)S1(=O)=O)OCCCCn1nnc3c(C)c(ccc31)C2CC(=O)O (single isomer, unassigned) [Example 39b, [4,26,31-Trimethyl-27,27-dioxo-21-oxa-27λ^6-thia-1,14,15,16,26-pentaazahexacyclo[20.5.3.1^3,70.1^9,130.0^12,160.0^25,29]dotriaconta-3(32),4,6,9(31),10,12,14,22,24,29-decaen-8-yl]acetic acid] |  | 79.5
